# What was measured:
# EGFR = biological target: T1, EGFR (Homo sapiens, UniProt P00533); test: Biochemical EGFR Assay; parameters: concentration or dose not given beside the values
# T1 construct: endogenous in cells; host or cells: A431 cells (lysate, captured with SUMO1 anti-EGFR antibody)
# Method in brief: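 Readout is ABTS absorbance at 410 nm after anti-phosphotyrosine and HRP-antibody detection of EGFR autophosphorylation. The kinase was immunocaptured from A431 lysate, exposed 30 min to test compound diluted 1:10 in TBS, then phosphorylated for 5 min with ATP/MnCl2 before an EDTA stop.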
# PDGF-R = PDGF-R Assay (cellular ELISA, U1242 cells); format: cell-based; parameters: concentration or dose not given beside the values
# Method in brief: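 Cellular ELISA for receptor autophosphorylation: after 2 hr test-compound treatment of serum-free U1242 cells at 37°C, ligand is added for 5–10 min, cells are lysed (HNTG) and receptor captured by specific antibody. Anti-phosphotyrosine plus secondary antibody with ABTS colour read at 410/630 nm, compared with compound-free control cells.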
# T1 sequence (P00533 25-1210): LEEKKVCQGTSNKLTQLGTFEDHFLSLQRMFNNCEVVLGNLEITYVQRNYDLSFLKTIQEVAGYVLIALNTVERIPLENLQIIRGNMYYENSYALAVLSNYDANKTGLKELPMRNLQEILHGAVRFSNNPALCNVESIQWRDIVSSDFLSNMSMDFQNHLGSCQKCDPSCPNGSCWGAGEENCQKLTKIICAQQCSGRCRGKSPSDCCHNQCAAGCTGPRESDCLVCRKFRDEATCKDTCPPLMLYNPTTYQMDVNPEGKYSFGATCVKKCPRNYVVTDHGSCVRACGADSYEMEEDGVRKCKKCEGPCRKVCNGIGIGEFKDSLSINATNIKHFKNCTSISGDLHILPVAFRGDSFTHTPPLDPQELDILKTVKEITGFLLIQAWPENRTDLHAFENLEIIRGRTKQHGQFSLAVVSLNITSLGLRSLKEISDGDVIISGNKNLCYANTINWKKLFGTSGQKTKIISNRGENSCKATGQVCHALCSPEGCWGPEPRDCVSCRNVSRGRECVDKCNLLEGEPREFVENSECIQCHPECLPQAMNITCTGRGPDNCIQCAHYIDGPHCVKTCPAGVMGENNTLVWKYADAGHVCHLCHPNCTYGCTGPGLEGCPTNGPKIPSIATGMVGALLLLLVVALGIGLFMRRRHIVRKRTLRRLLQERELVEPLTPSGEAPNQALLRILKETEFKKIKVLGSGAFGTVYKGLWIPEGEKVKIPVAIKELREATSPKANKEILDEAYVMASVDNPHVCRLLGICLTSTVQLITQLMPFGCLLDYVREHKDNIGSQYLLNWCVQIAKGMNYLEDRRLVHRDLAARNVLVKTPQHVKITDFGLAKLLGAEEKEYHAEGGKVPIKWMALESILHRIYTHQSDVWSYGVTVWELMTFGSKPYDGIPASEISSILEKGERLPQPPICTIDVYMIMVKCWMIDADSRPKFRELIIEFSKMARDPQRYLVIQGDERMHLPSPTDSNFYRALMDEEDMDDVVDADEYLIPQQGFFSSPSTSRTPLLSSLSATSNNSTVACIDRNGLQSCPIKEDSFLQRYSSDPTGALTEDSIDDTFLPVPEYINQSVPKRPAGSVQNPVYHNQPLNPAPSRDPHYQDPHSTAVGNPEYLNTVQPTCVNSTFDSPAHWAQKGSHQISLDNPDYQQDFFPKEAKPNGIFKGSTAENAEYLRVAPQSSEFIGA
SMILES,Biochem EGFR % Inhibition (P.167) (EGFR) [%],PDGF Kinase % Inhibition (P.119) (PDGF-R) [%]
Cc1c(O)ccc(C=C2C(=O)Nc3c(Br)cc(Br)c(C)c32)c1O [10718/H09],34.2,
Cc1c(Br)cc(Br)c2c1C(=Cc1ccco1)C(=O)N2 [10718/H10],−5.7,
Cc1c(Br)cc(Br)c2c1C(=Cc1ccc([N+](=O)[O-])o1)C(=O)N2 [10718/H11],4.4,
CCOc1ccc(C=C2C(=O)Nc3c(Br)cc(Br)c(C)c32)cc1OC [10719/H02],43.9,
Cc1c(Br)cc(Br)c2c1C(=Cc1ccc(O)c(O)c1)C(=O)N2 [10719/H03],25.1,
COc1ccc(C=C2C(=O)Nc3c(Br)cc(Br)c(C)c32)c(OC)c1 [10719/H04],−0.5,
CCc1c(C)[nH]c(C=C2C(=O)Nc3c(Br)cc(Br)c(C)c32)c1C [10719/H05],7.9,
COc1cc(OC)c(C=C2C(=O)Nc3c(Br)cc(Br)c(C)c32)c(OC)c1 [10719/H06],−28.0,
CCN(CC)c1ccc(C=C2C(=O)Nc3c(Br)cc(Br)c(C)c32)c(O)c1 [10734/H05],4.7,−14.4
Cc1c(Br)cc(Br)c2c1C(=Cc1ccc([N+](=O)[O-])cc1)C(=O)N2 [10734/H06],−32.2,−26.3
Cc1c(Br)cc(Br)c2c1C(=Cc1cc(Br)cc(Br)c1O)C(=O)N2 [10734/H07],6.6,−6.4
Cc1c(Br)cc(Br)c2c1C(=Cc1cccc(F)c1O)C(=O)N2 [10734/H08],2.9,2.9
Cc1c(Br)cc(Br)c2c1C(=Cc1ccc(O)c(Br)c1)C(=O)N2 [10734/H09],−4.2,−19.2
Cc1c(Br)cc(Br)c2c1C(=Cc1ccc(C(C)(C)C)cc1)C(=O)N2 [10734/H10],−12.6,−17.9
Cc1c(Br)cc(Br)c2c1C(=Cc1ccc(Br)s1)C(=O)N2 [10734/H11],−8.5,−17.9
Cc1ccccc1C=C1C(=O)Nc2c(Br)cc(Br)cc21 [10735/A02],14.3,14.3
O=C1Nc2c(Br)cc(Br)cc2C1=Cc1ccc(F)c(F)c1 [10735/A03],28.8,21.9
O=C1Nc2c(Br)cc(Br)cc2C1=Cc1cc(F)cc(F)c1 [10735/A04],5.0,18.8
O=C1Nc2c(Br)cc(Br)cc2C1=Cc1cccc(C(F)(F)F)c1 [10735/A05],41.5,0.9
O=C1Nc2c(Br)cc(Br)cc2C1=Cc1cc(C(F)(F)F)cc(C(F)(F)F)c1 [10735/A06],24.9,4.7
N#Cc1ccccc1C=C1C(=O)Nc2c(Br)cc(Br)cc21 [10735/A07],18.7,0.5
O=C1Nc2c(Br)cc(Br)cc2C1=Cc1c(F)cccc1F [10735/A08],10.9,5.3
O=C1Nc2c(Br)cc(Br)cc2C1=Cc1cccc2ccccc12 [10735/A09],13.0,1.9
O=C1Nc2c(Br)cc(Br)cc2C1=Cc1ccc(Cl)cc1Cl [10735/A10],10.2,−0.2
O=C1Nc2c(Br)cc(Br)cc2C1=Cc1ccc(-c2ccccc2)cc1 [10735/A11],3.3,5.7
Cc1ccccc1C=C1C(=O)Nc2ccc(I)cc21 [10735/B02],39.1,22.6
O=C1Nc2ccc(I)cc2C1=Cc1ccc(F)c(F)c1 [10735/B03],42.9,16.4
O=C1Nc2ccc(I)cc2C1=Cc1cc(F)cc(F)c1 [10735/B04],49.2,2.9
O=C1Nc2ccc(I)cc2C1=Cc1cccc(C(F)(F)F)c1 [10735/B05],61.6,17.4
O=C1Nc2ccc(I)cc2C1=Cc1cc(C(F)(F)F)cc(C(F)(F)F)c1 [10735/B06],49.4,14.0

# From US20020026053A1, “Novel 3-(substituted) -2- indolinones compounds and use thereof as inhibitors of protein kinase activity” (priority 1997, published 2002)
